In US4882349A, “Pyrrolacetic amides having antiinflammatory activity” (priority 1982, dated 1989):

Key:
[1] = tested on: carrageenin-induced oedema; assay: carrageenin-induced oedema test (anti-inflammatory activity); assay type: in vivo, albino male Wistar rats
[2] = tested on: mucus secreted by the respiratory airway; assay: antisecretory activity, respiratory mucus secretion; assay type: in vivo, albino male New Zealand rabbits; details: vs control group
Method: The experiment was carried out in accordance with the method described by Y. Kase (Folia Pharmacol. Jap. 73: 605, 1977) for the purpose of investigating whether or not the compounds under examination determine changes in the volume of the mucus secreted by the respiratory airway. Groups of four albino male New Zealand rabbits (mean weight: 2.5 kg) were used for testing each dose per single group. The animals were anesthetized with urethane (1.1 g/ks b.w.) via the intraperitoneal route and a Y cannula was inserted into the trachea. In order to stimulate mucous secretion a humidifier was connected to the cannula permitting the animals to spontaneously breathe air with 100% humidity at a constant temperature of 39° C. The secreted mucus was collected through another opening in the cannula and measured at three and six hours after administration of the compounds under examination or of the vehicle alone administered in the order of […] (controls). Calculation of the increase or decrease in mucous secretion was based upon the percentage differences between the groups treated with the compounds under examination and the control group. Table VII gives the percentage differences in mucous secretion, and the tested compounds with relative doses and routes of administration.

[3] = tested on: phenyl-p-quinone-induced writhing (abdominal contractions); assay: phenylquinone-induced writhing test (analgesic activity), compound given 30 min before phenyl-p-quinone; assay type: in vivo, male Wistar rats
Method in brief: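 Male Wistar rats (110±5 g), fasted 14 h, received test compounds orally or parenterally in 0.5% CMC/saline vehicle 30 min before 2 ml of 0.36% phenyl-p-quinone in 5% ethanol.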

[4] = tested on: cough provoked by mechanical stimulation of the tracheal bifurcation mucosa; assay: antitussive activity, mechanically provoked coughing; assay type: in vivo, albino Guinea-pigs; details: 1 h after administration
Method: The antitussive effect on albino Guinea-pigs weighing 300 g was evaluated using the method described by Y. Kase (Selected Pharmacological Testing Methods, p.363, Marcel Dekker Inc., New York, 1968). Each dose was tested in a group of animals with a Y cannula inserted into the trachea. In order to provoke coughing, the mucosa of the tracheal bifurcation was mechanically stimulated by insertion of a wild boar's hair through an opening in the cannula, while the other opening was connected to a kymograph to plot the amplitude and/or frequency. The reduction in the number of coughs was evaluated at one hour after administration of the compounds under examination by following the plottings for twenty minutes and comparing the response of the control animals.

[5] = 25 mg/Kg, Table IV (route not given), 2 h
[6] = 25 mg/Kg, Table IV (route not given), 4 h
[7] = 25 mg/Kg, Table IV (route not given), 6 h
[8] = 25 mg/Kg, Table IV (route not given), 24 h
[9] = 25 mg/Kg, Table IV (route not given), 48 h
[10] = 25 mg/Kg, Table IV (route not given), 72 h
[11] = 50 mg/Kg, Table IV (route not given), 2 h
[12] = 50 mg/Kg, Table IV (route not given), 4 h
[13] = 50 mg/Kg, Table IV (route not given), 6 h
[14] = 50 mg/Kg, Table IV (route not given), 24 h
[15] = 50 mg/Kg, Table IV (route not given), 48 h
[16] = 50 mg/Kg, Table IV (route not given), 72 h
[17] = 100 mg/Kg, Table IV (route not given), 2 h
[18] = 100 mg/Kg, Table IV (route not given), 4 h
[19] = 100 mg/Kg, Table IV (route not given), 6 h
[20] = 100 mg/Kg, Table IV (route not given), 24 h
[21] = 100 mg/Kg, Table IV (route not given), 48 h
[22] = 100 mg/Kg, Table IV (route not given), 72 h

CCOC(=O)c1ccc(NC(=O)Cc2ccc(C(=O)c3ccc(C)cc3)n2C)cc1 [Compound 1-h, 1-methyl-5-p-toluoylpyrrole-2-N-(4-carboxyethyl-phenyl) acetamide]
oedema % inhibition ([1]; 25 mg/Kg per os, 2 h): 28.9%
oedema % inhibition ([1]; 25 mg/Kg per os, 4 h): 30.1%
oedema % inhibition ([1]; 25 mg/Kg per os, 6 h): 29.0%
oedema % inhibition ([1]; 25 mg/Kg per os, 24 h): 8.3%
oedema % inhibition ([1]; 25 mg/Kg per os, 48 h): 0.0%
oedema % inhibition ([1]; 25 mg/Kg per os, 72 h): 0.0%
oedema % inhibition [1, 5]: 30.1%
oedema % inhibition [1, 6]: 27.9%
oedema % inhibition [1, 7]: 29.0%
oedema % inhibition [1, 8]: 13.0%
oedema % inhibition [1, 9]: 0.0%
oedema % inhibition [1, 10]: 0.0%
oedema % inhibition ([1]; 50 mg/Kg per os, 2 h): 48.9%
oedema % inhibition ([1]; 50 mg/Kg per os, 4 h): 49.0%
oedema % inhibition ([1]; 50 mg/Kg per os, 6 h): 47.1%
oedema % inhibition ([1]; 50 mg/Kg per os, 24 h): 9.9%
oedema % inhibition ([1]; 50 mg/Kg per os, 48 h): 0.0%
oedema % inhibition ([1]; 50 mg/Kg per os, 72 h): 0.0%
oedema % inhibition [1, 11]: 50.2%
oedema % inhibition [1, 12]: 51.0%
oedema % inhibition [1, 13]: 47.0%
oedema % inhibition [1, 14]: 15.1%
oedema % inhibition [1, 15]: 0.0%
oedema % inhibition [1, 16]: 0.0%
oedema % inhibition ([1]; 100 mg/Kg per os, 2 h): 66.9%
oedema % inhibition ([1]; 100 mg/Kg per os, 4 h): 67.1%
oedema % inhibition ([1]; 100 mg/Kg per os, 6 h): 69.0%
oedema % inhibition ([1]; 100 mg/Kg per os, 24 h): 22.0%
oedema % inhibition ([1]; 100 mg/Kg per os, 48 h): 13.0%
oedema % inhibition ([1]; 100 mg/Kg per os, 72 h): 0.0%
oedema % inhibition [1, 17]: 70.1%
oedema % inhibition [1, 18]: 68.9%
oedema % inhibition [1, 19]: 66.0%
oedema % inhibition [1, 20]: 19.0%
oedema % inhibition [1, 21]: 10.0%
oedema % inhibition [1, 22]: 0.0%
% difference in mucus secretion ([2]; 50 mg/Kg i.p., 3 h): -8%
% difference in mucus secretion ([2]; 50 mg/Kg i.p., 6 h): -3%
% difference in mucus secretion ([2]; 50 mg/Kg per os, 3 h): -5%
% difference in mucus secretion ([2]; 50 mg/Kg per os, 6 h): 0.0%
% difference in mucus secretion ([2]; 75 mg/Kg i.p., 3 h): -26%
% difference in mucus secretion ([2]; 75 mg/Kg i.p., 6 h): -20%
% difference in mucus secretion ([2]; 75 mg/Kg per os, 3 h): -19%
% difference in mucus secretion ([2]; 75 mg/Kg per os, 6 h): -16%
% difference in mucus secretion ([2]; 100 mg/Kg i.p., 3 h): -41%
% difference in mucus secretion ([2]; 100 mg/Kg i.p., 6 h): -38%
% difference in mucus secretion ([2]; 100 mg/Kg per os, 3 h): -39%
% difference in mucus secretion ([2]; 100 mg/Kg per os, 6 h): -32%
% Protection ([3]; 5 mg/Kg i.p.): 18.0%
% Protection ([3]; 5 mg/Kg per os): 16.2%
% Protection ([3]; 10 mg/Kg i.p.): 44.0%
% Protection ([3]; 10 mg/Kg per os): 37.9%
% Protection ([3]; 20 mg/Kg i.p.): 79.0%
% Protection ([3]; 20 mg/Kg per os): 70.1%
% inhibition, cough amplitude ([4]; 50 mg/Kg i.p.): 20%
% inhibition, cough frequency ([4]; 50 mg/Kg i.p.): 18%
% inhibition, cough amplitude ([4]; 50 mg/Kg per os): 13%
% inhibition, cough frequency ([4]; 50 mg/Kg per os): 10%
% inhibition, cough amplitude ([4]; 75 mg/Kg i.p.): 29%
% inhibition, cough frequency ([4]; 75 mg/Kg i.p.): 35%
% inhibition, cough amplitude ([4]; 75 mg/Kg per os): 22%
% inhibition, cough frequency ([4]; 75 mg/Kg per os): 18%
% inhibition, cough amplitude ([4]; 100 mg/Kg i.p.): 45%
% inhibition, cough frequency ([4]; 100 mg/Kg i.p.): 53%
% inhibition, cough amplitude ([4]; 100 mg/Kg per os): 40%
% inhibition, cough frequency ([4]; 100 mg/Kg per os): 50%

Cc1ccc(C(=O)c2ccc(CC(=O)N3CCOCC3)n2C)cc1 [Compound 3-a, 1-methyl-5-p-toluoylpyrrole-2-N-(4-morpholinyl) acetamide]
oedema % inhibition ([1]; 25 mg/Kg per os, 2 h): 27.1%
oedema % inhibition ([1]; 25 mg/Kg per os, 4 h): 29.0%
oedema % inhibition ([1]; 25 mg/Kg per os, 6 h): 32.3%
oedema % inhibition ([1]; 25 mg/Kg per os, 24 h): 7.1%
oedema % inhibition ([1]; 25 mg/Kg per os, 48 h): 0.0%
oedema % inhibition ([1]; 25 mg/Kg per os, 72 h): 0.0%
oedema % inhibition [1, 5]: 28.9%
oedema % inhibition [1, 6]: 32.7%
oedema % inhibition [1, 7]: 34.0%
oedema % inhibition [1, 8]: 10.1%
oedema % inhibition [1, 9]: 0.0%
oedema % inhibition [1, 10]: 0.0%
oedema % inhibition ([1]; 50 mg/Kg per os, 2 h): 46.0%
oedema % inhibition ([1]; 50 mg/Kg per os, 4 h): 49.1%
oedema % inhibition ([1]; 50 mg/Kg per os, 6 h): 48.0%
oedema % inhibition ([1]; 50 mg/Kg per os, 24 h): 13.4%
oedema % inhibition ([1]; 50 mg/Kg per os, 48 h): 0.0%
oedema % inhibition ([1]; 50 mg/Kg per os, 72 h): 0.0%
oedema % inhibition [1, 11]: 50.7%
oedema % inhibition [1, 12]: 48.9%
oedema % inhibition [1, 13]: 42.0%
oedema % inhibition [1, 14]: 11.2%
oedema % inhibition [1, 15]: 0.0%
oedema % inhibition [1, 16]: 0.0%
oedema % inhibition ([1]; 100 mg/Kg per os, 2 h): 60.0%
oedema % inhibition ([1]; 100 mg/Kg per os, 4 h): 55.2%
oedema % inhibition ([1]; 100 mg/Kg per os, 6 h): 69.7%
oedema % inhibition ([1]; 100 mg/Kg per os, 24 h): 18.1%
oedema % inhibition ([1]; 100 mg/Kg per os, 48 h): 0.0%
oedema % inhibition ([1]; 100 mg/Kg per os, 72 h): 0.0%
oedema % inhibition [1, 17]: 69.8%
oedema % inhibition [1, 18]: 69.0%
oedema % inhibition [1, 19]: 63.0%
oedema % inhibition [1, 20]: 13.1%
oedema % inhibition [1, 21]: 0.0%
oedema % inhibition [1, 22]: 0.0%
% difference in mucus secretion ([2]; 50 mg/Kg i.p., 3 h): -10%
% difference in mucus secretion ([2]; 50 mg/Kg i.p., 6 h): -7%
% difference in mucus secretion ([2]; 50 mg/Kg per os, 3 h): -7%
% difference in mucus secretion ([2]; 50 mg/Kg per os, 6 h): -8%
% difference in mucus secretion ([2]; 75 mg/Kg i.p., 3 h): -20%
% difference in mucus secretion ([2]; 75 mg/Kg i.p., 6 h): -18%
% difference in mucus secretion ([2]; 75 mg/Kg per os, 3 h): -15%
% difference in mucus secretion ([2]; 75 mg/Kg per os, 6 h): -10%
% difference in mucus secretion ([2]; 100 mg/Kg i.p., 3 h): -38%
% difference in mucus secretion ([2]; 100 mg/Kg i.p., 6 h): -29%
% difference in mucus secretion ([2]; 100 mg/Kg per os, 3 h): -32%
% difference in mucus secretion ([2]; 100 mg/Kg per os, 6 h): -25%
% Protection ([3]; 5 mg/Kg i.p.): 18.0%
% Protection ([3]; 5 mg/Kg per os): 16.0%
% Protection ([3]; 10 mg/Kg i.p.): 48.0%
% Protection ([3]; 10 mg/Kg per os): 39.0%
% Protection ([3]; 20 mg/Kg i.p.): 76.0%
% Protection ([3]; 20 mg/Kg per os): 65.0%
% inhibition, cough amplitude ([4]; 50 mg/Kg i.p.): 20%
% inhibition, cough frequency ([4]; 50 mg/Kg i.p.): 15%
% inhibition, cough amplitude ([4]; 50 mg/Kg per os): 15%
% inhibition, cough frequency ([4]; 50 mg/Kg per os): 16%
% inhibition, cough amplitude ([4]; 75 mg/Kg i.p.): 30%
% inhibition, cough frequency ([4]; 75 mg/Kg i.p.): 16%
% inhibition, cough amplitude ([4]; 75 mg/Kg per os): 30%
% inhibition, cough frequency ([4]; 75 mg/Kg per os): 18%
% inhibition, cough amplitude ([4]; 100 mg/Kg i.p.): 40%
% inhibition, cough frequency ([4]; 100 mg/Kg i.p.): 56%
% inhibition, cough amplitude ([4]; 100 mg/Kg per os): 35%
% inhibition, cough frequency ([4]; 100 mg/Kg per os): 45%
